Data reported in patent US20140088052A1, “CHALCONE DERIVATIVES AS NRF2 ACTIVATORS” (THE JOHNS HOPKINS UNIVERSITY, priority 2011, published 2014).

How the values were obtained:
[1] = tested on: Nrf2; assay: In vivo potency to activate Nrf2: GCLM and NQO1 expression in mouse small intestine; design: species or system mice (C57BL/6); details: mice, single dose 50 mg/kg by gavage, 24 h
Description: Mice (n=4) were fed with vehicle (DCP-10% DMSO+10% Cremophor+80% phosphate buffered saline) or chalcone derivatives or sulforaphane (50 mg/kg body weight) by gavage, and the small intestines were harvested 24 hours later. The expression of Nrf2-regulated genes GCLM and NQO1 was analyzed in the tissues by qRT-PCR as a surrogate marker of Nrf2 activity. β-actin was used for normalization. Data are representative of three independent experiments. Values shown are mean±SD of triplicate wells (P≦0.05);
The potency of the 8 lead chalcones identified in the in vitro screening to activate Nrf2 pathway were evaluated in mouse models. First, various formulations to dissolve the compounds were evaluated, and the DCP (10% DMSO+10% Cremophor EL+80% phosphate buffered saline) formulation offered the maximum solubility for delivery of these compounds by oral route. Mice (C57BL/6) were administrated with a single dose of vehicle or test compound(s) or sulforaphane as the positive control at a dose of 50 mg/kg body weight by gavage and small intestines were harvested 24 h later. The expression of Nrf2-regulated genes GCLM and NQO1 was analyzed in the tissue by qRT-PCR. All the eight compounds tested increased the expression of GCLM and NQO1 in small intestine. […] The expression of GCLM and NQO1 in the small intestine of mice treated with 2b was 6-fold and 10-fold higher compared to vehicle, respectively. Similarly, the expression of GCLM and NQO1 in the small intestine treated with 2b was 3-fold and 5-fold higher compared to sulforaphane, respectively.
All experiments in mice were performed in accordance with the standards established by the U.S. Animal Welfare Acts, set forth in NIH guidelines and the Policy and Procedures Manual of the Johns Hopkins University Animal Care and Use Committee. C57BL/6 mice (male, 7 weeks) were maintained on AIN 76A diet (Harlan Tekland, Madison, Wis.) and water ad libitum and housed at a temperature (range, 20-23° C.) under 12 h light/dark cycles. The mice were treated with chalcone analogs (50 mg/kg body weight) or vehicle or sulforaphane as a positive control by gavage. After 24 h treatment, the small intestines were harvested and stored at −80° C. until analysis.
(§1) Total RNA was extracted from cells/tissue using Qiagen RNeasy kit (Qiagen Corporation, Valencia, Calif.) and reverse transcription was performed by using random hexamers and MultiScribe reverse transcriptase according to the manufacturer's recommendations (Applied Biosystems, Foster City, Calif., USA). Quantitative real-time RT-PCR analyses of Nrf2, NQO1, HO1, and GCLM were performed by using Assay-on-Demand primers and probe sets from Applied Biosystems. Assays were performed using the ABI 7000 Taqman system (Applied Biosystems, Foster City, Calif.). β-actin was used for normalization.

[2] = tested on: Nrf2; assay: Concentration and time-course studies of Nrf2-driven antioxidant genes in Beas-2B cells; type: cell-based, human
Description: as §1, with “The expression of Nrf2-regulated genes GCLM, HO1, and NQO1 was analyzed in the tissues by qRT-PCT as a surrogate marker of Nrf2 activity. β-actin was used for normalization. Data are representative of three independent experiments. […] The expression of Nrf2-regulated genes GCLM, HO1, and NQO1 was analyzed in the tissues by aRT-PCR. β-actin was used for normalization. Data are representative of three independent experiments. Values shown are mean±SD of triplicate wells (P≦0.05); […] […] Total” for “Total”

[3] = Beas-2B cells, 10 μM, 6 h after treatment

Structure (SMILES): COc1ccccc1C(=O)/C=C/c1ccccc1C(F)(F)F [Compound 2b, (E)-1-(2-methoxyphenyl)-3-(2-(trifluoromethyl)phenyl)prop-2-en-1-one]
- expression of GCLM in the small intestine, compared to sulforaphane [1]: 3 fold
- expression of GCLM in the small intestine, compared to vehicle [1]: 6 fold
- expression of NQO1 in the small intestine, compared to sulforaphane [1]: 5 fold
- expression of NQO1 in the small intestine, compared to vehicle [1]: 10 fold
- expression of GCLM and NQO1 in small intestine (Nrf2 activity) ([1]; in words): most potent inducer of Nrf2 activity
- expression of HO-1 compared to sulforaphane ([2]; Beas-2B cells, 10 μM): 6 fold
- expression of NQO1 over time ([2]; Beas-2B cells, 10 μM, 6, 12, 24 and 48 h): highest at 24 h and remained significantly elevated even at 48 h
- highest induction of GCLM [2, 3]: approximately 7 fold
- highest induction of HO-1 [2, 3]: approximately 150 fold
- expression of GCLM and HO-1 at 48 h ([2]; Beas-2B cells, 10 μM, 48 h): comparable to vehicle by 48 h
- increase in the expression of GCLM ([2]; Beas-2B cells, 20 μM, 24 h): approximately 5 fold
- increase in the expression of NQO1 ([2]; Beas-2B cells, 20 μM, 24 h): ~10 fold
- Nrf2-regulated gene expression (GCLM, NQO1, HO1) ([2]; Beas-2B cells, 2.5, 5, 10, 20 μM, 24 h): significantly increased the Nrf2-regulated gene expression in a concentration-dependent manner
